Results published in publication PMC12597562 (Molecular Pharmacology, 2025).

Experiments:
human DAT [1] = molecular target: T1, human DAT (Homo sapiens, UniProt Q01959); assay: [3H]dopamine uptake inhibition, intact cells; format: cell-based
T1 construct: gene SLC6A3; full-length codon-optimized human DAT with N-terminal mScarlet-I tag (subcloned from EYFP-DAT), stably expressed in TAAR1 KO HEK293 cells

human DAT [2] = molecular target: T1, human DAT; assay: […]RTI-55 competition binding, cell membranes; settings: read-out: Inhibition of [^125I]RTI-55 Binding pKi ± SD (n) (converted)
[3] = substrate: NCCc1ccc(O)c(O)c1; assay: cells, lysate or membranes; settings: TAAR1-/- DAT cells, vehicle pretreatment, 10 min uptake; labelled compound; n=4

## CCN(C[C@H]1COC(N)=N1)c1ccccc1 [RO5166017]
Human DAT [1]; read-out: Inhibition of [^3H]DA Uptake pIC50 ± SD (n) (converted)
  IC50: 17.4 µM
Human DAT [2]
  Ki: 21.9 µM

## CC[C@@H](C[C@H]1COC(N)=N1)c1ccccc1 [RO5256390]
Human DAT [1]; 20 nM [3H]DA, 10 min preincubation, 10 min uptake, 25 °C, Krebs-HEPES buffer, n=6
  Inhibition of [^3H]DA Uptake pIC50 ± SD (n): 5.73 ± 0.23

B1: human DAT (Homo sapiens) (protein)
chain: MSKSKCSVGLMSSVVAPAKEPNAVGPKEVELILVKEQNGVQLTSSTLTNPRQSPVEAQDRETWGKKIDFLLSVIGFAVDLANVWRFPYLCYKNGGGAFLVPYLLFMVIAGMPLFYMELALGQFNREGAAGVWKICPILKGVGFTVILISLYVGFFYNVIIAWALHYLFSSFTTELPWIHCNNSWNSPNCSDAHPGDSSGDSSGLNDTFGTTPAAEYFERGVLHLHQSHGIDDLGPPRWQLTACLVLVIVLLYFSLWKGVKTSGKVVWITATMPYVVLTALLLRGVTLPGAIDGIRAYLSVDFYRLCEASVWIDAATQVCFSLGVGFGVLIAFSSYNKFTNNCYRDAIVTTSINSLTSFSSGFVVFSFLGYMAQKHSVPIGDVAKDGPGLIFIIYPEAIATLPLSSAWAVVFFIMLLTLGIDSAMGGMESVITGLIDEFQLLHRHRELFTLFIVLATFLLSLFCVTNGGIYVFTLLDHFAAGTSILFGVLIEAIGVAWFYGVGQFSDDIQQMTGQRPSLYWRLCWKLVSPCFLLFVVVVSIVTFRPPHYGAYIFPDWANALGWVIATSSMAMVPIYAAYKFCSLPGSFREKLAYAIAPEKDRELVDRGEVRQFTLRHWLKV
[3]
  Km: 0.631 ± 0.26 µM
  Vmax: 1.63e-06 µmol/min/mg
